Experimental data reported in patent US12258328B2, “6-membered heteroaryl-containing aminopyridine compounds as EGFR inhibitors” (YUHAN CORPORATION, priority 2021, dated 2025).
Where two headings read alike, the source gives them in different places.

Legend:
[1] = target: EGFR del19/T790M/C797S (Homo sapiens, UniProt P00533, C797S/DEL746-750/T790M); test: Biochemical EGFR kinase assay (Lance Ultra TR-FRET), triple mutant del19/T790M/C797S
Method in brief: (§1)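 Kinase activity is measured by TR-FRET phosphopeptide detection. Compounds span 0.003 μM to 10 μM; the 1 h reaction at room temperature is quenched with EDTA, then labelled antibody (2 nM) is incubated 60 min before reading.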

[2] = target: EGFR L858R/T790M/C797S (Homo sapiens, UniProt P00533, C797S/L858R/T790M); test: Biochemical EGFR kinase assay (Lance Ultra TR-FRET), triple mutant L858R/T790M/C797S
Method in brief: as §1

[3] = target: EGFR del19/C797S (Homo sapiens, UniProt P00533, C797S/DEL746-750); test: Biochemical EGFR kinase assay (Lance Ultra TR-FRET), double mutant del19/C797S
Method in brief: as §1

[4] = target: EGFR wildtype (Homo sapiens, UniProt P00533); test: Biochemical EGFR kinase assay (Lance Ultra TR-FRET), wildtype
Method in brief: as §1

[5] = target: EGFR L858R/C797S (Homo sapiens, UniProt P00533, C797S/L858R); test: Biochemical EGFR kinase assay (Lance Ultra TR-FRET), double mutant L858R/C797S
Method in brief: as §1

[6] = IC50 del19/T790M/C797S (nM) 100 μM ATP, 100 μM ATP
[7] = Km ATP, read-out: IC50 del19/T790M/C797S (nM) Km ATP
[8] = IC50 L858R/T790M/C797S (nM) 100 μM ATP, 100 μM ATP
[9] = Km ATP, read-out: IC50 L858R/T790M/C797S (nM) Km ATP
[10] = IC50 del19/C797S (nM) 100 μM ATP, 100 μM ATP
[11] = Km ATP, read-out: IC50 del19/C797S (nM) Km ATP
[12] = IC50 WT (nM) 100 μM ATP, 100 μM ATP
[13] = Km ATP, read-out: IC50 WT (nM) Km ATP
[14] = IC50 L858R/C797S (nM) 100 μM ATP, 100 μM ATP
[15] = Km ATP, read-out: IC50 L858R/C797S (nM) Km ATP

Chain of EGFR L858R/T790M/C797S (P00533 25-1210 T790M/C797S/L858R): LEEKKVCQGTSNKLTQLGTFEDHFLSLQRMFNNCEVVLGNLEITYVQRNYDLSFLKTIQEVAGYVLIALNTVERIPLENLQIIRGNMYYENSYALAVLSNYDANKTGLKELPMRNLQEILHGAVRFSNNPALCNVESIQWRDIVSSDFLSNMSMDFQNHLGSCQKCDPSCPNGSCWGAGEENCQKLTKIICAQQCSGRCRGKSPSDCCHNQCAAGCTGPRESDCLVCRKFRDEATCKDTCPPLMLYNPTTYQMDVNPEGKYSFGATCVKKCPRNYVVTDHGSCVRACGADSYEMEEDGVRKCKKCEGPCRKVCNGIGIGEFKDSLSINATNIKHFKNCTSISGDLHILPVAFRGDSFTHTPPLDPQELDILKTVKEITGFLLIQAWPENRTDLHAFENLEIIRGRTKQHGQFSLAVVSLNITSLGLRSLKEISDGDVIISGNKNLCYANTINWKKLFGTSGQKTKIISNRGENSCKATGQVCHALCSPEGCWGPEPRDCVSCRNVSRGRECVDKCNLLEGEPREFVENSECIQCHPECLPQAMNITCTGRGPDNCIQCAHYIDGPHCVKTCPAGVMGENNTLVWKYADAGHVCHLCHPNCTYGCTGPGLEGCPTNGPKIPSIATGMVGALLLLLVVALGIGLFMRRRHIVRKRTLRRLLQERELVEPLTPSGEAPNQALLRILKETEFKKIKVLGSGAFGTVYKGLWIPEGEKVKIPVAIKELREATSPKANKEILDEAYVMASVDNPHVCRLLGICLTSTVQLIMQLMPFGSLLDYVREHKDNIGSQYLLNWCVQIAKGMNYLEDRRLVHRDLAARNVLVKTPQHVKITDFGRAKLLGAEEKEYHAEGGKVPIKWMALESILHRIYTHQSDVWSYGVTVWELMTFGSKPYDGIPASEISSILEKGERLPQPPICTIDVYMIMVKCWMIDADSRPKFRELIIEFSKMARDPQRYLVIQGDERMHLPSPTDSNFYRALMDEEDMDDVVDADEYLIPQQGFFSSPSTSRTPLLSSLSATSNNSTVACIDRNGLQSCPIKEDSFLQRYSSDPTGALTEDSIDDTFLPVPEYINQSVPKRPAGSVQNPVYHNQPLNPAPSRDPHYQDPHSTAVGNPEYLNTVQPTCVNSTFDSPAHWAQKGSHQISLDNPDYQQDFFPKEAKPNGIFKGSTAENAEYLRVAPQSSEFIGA
Chain of EGFR wildtype (P00533 25-1210): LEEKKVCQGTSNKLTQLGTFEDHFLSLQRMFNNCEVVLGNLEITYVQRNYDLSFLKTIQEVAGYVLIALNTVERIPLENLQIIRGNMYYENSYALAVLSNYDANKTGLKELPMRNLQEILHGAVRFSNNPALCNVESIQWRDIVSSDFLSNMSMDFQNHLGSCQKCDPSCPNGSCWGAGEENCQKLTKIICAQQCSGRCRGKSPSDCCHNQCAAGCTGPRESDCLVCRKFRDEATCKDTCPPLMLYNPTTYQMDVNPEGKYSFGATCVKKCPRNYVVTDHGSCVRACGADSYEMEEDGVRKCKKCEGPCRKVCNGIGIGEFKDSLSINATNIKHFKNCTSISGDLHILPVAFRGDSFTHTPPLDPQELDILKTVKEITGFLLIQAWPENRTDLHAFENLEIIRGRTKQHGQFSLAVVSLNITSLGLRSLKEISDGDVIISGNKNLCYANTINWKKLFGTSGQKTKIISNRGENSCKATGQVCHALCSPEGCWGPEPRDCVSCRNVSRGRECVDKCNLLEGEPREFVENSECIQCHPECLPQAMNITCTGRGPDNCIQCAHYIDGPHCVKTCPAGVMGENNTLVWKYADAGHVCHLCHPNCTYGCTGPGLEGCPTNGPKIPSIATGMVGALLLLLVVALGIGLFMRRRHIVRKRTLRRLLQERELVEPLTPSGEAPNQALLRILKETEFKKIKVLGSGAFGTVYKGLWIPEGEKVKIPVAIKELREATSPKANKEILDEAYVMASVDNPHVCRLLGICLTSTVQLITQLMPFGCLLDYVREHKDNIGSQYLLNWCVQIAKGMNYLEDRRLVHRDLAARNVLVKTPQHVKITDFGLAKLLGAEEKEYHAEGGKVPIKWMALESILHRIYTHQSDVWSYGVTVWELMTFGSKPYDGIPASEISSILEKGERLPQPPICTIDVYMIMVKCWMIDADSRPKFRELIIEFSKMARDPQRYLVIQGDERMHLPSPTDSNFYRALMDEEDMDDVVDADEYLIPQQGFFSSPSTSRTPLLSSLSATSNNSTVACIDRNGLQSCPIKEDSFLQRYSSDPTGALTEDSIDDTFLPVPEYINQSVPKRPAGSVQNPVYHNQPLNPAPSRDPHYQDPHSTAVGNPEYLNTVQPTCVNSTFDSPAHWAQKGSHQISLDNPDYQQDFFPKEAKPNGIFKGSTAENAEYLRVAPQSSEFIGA
Chain of EGFR del19/C797S (P00533 with tags, fused parts or gaps DEL746-750/C797S): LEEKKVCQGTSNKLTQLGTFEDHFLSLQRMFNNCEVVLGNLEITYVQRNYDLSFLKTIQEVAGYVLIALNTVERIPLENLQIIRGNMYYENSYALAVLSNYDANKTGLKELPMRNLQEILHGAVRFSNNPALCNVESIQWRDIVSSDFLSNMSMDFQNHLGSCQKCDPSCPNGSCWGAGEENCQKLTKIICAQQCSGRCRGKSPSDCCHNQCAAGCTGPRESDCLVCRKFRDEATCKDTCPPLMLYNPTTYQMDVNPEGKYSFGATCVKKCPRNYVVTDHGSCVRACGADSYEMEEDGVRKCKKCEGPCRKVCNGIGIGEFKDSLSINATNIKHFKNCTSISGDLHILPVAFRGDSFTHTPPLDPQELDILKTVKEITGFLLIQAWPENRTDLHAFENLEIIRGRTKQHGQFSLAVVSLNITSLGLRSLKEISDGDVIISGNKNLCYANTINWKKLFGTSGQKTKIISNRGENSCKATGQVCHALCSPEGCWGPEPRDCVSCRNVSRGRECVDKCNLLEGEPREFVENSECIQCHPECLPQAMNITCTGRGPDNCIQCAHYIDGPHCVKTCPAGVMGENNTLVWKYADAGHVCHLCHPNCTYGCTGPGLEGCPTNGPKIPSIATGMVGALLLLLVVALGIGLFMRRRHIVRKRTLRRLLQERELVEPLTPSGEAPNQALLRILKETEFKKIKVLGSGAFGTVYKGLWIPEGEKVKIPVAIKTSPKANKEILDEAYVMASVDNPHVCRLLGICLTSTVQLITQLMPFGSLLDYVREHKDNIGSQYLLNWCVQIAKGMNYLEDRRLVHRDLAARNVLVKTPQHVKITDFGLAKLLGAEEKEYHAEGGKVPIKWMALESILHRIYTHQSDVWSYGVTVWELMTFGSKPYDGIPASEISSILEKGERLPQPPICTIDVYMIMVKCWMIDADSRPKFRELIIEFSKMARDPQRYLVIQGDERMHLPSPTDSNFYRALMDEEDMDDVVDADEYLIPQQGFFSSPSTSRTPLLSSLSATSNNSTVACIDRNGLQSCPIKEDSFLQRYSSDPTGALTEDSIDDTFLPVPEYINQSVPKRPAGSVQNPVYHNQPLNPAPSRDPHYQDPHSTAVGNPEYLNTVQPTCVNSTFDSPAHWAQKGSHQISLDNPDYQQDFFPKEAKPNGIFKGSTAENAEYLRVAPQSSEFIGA
Chain of EGFR L858R/C797S (P00533 25-1210 C797S/L858R): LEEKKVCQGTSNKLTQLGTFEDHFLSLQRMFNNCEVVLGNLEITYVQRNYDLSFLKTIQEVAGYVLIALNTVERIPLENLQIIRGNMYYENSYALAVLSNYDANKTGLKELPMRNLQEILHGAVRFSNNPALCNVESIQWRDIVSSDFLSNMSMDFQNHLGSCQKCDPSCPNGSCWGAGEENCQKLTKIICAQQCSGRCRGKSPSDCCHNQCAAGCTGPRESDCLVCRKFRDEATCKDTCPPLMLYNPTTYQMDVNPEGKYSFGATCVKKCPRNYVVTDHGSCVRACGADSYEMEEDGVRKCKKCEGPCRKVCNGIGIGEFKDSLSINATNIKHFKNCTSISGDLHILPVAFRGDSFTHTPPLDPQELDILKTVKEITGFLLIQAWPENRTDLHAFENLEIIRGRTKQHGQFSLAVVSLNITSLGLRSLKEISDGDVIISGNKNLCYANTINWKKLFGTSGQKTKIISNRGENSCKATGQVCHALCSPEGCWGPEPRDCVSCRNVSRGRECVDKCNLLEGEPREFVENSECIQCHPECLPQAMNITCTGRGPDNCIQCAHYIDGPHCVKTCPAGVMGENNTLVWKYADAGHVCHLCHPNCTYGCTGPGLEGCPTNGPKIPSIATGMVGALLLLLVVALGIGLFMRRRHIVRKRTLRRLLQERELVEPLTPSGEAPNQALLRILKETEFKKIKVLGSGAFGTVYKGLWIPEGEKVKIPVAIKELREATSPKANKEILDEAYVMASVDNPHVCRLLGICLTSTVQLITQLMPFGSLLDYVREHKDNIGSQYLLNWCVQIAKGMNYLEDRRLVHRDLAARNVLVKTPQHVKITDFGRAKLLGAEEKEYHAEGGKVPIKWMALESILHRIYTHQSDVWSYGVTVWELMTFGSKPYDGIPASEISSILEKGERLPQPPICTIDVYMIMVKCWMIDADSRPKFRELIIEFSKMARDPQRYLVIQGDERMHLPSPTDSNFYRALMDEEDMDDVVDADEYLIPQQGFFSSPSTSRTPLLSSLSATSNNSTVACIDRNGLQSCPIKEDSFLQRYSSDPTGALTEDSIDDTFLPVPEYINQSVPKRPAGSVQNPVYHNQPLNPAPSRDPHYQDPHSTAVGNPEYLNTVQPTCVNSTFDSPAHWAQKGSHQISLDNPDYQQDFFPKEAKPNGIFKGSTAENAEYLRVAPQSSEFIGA

IC50 [1, 6] [nM]	IC50 [1, 7] [nM]	IC50 [2, 8] [nM]	IC50 [2, 9] [nM]	IC50 [3, 10] [nM]	IC50 [3, 11] [nM]	IC50 [4, 12] [nM]	IC50 [4, 13] [nM]	IC50 [5, 14] [nM]	IC50 [5, 15] [nM]	SMILES
2.2	1.6	2.8	0.6	2.4	0.7	1610	9.1	43.9	3.2	CN(C)C[C@H]1CC[C@@H](Nc2cc(Nc3ccnc(-c4cnn(S(=O)(=O)C5CC5)c4)n3)ncc2-c2cnc(N3CCC(F)(F)CC3)cn2)CC1 [Example 74, N^2-(2-(1-(Cyclopropylsulfonyl)-1H-pyrazol-4-yl)pyrimidin-4-yl)-5-(5-(4,4-difluoropiperidin-1-yl)pyrazin-2-yl)-N^4-((1s,4s)-4-((dimethylamino)methyl)cyclohexyl)pyridine-2,4-diamine]
15.2	8.7	15.2	6.6	33.2	34	> 10000	143	313	68.9	C[C@]1(O)CC[C@@H](Nc2cc(Nc3ccnc(-c4cnn(S(=O)(=O)C5CC5)c4)n3)ncc2-c2cnc(N3CCC(F)(F)CC3)cn2)CC1 [Example 75, (1s,4s)-4-((2-((2-(1-(Cyclopropylsulfonyl)-1H-pyrazol-4-yl)pyrimidin-4-yl)amino)-5-(5-(4,4-difluoropiperidin-1-yl)pyrazin-2-yl)pyridin-4-yl)amino)-1-methylcyclohexan-1-ol]
1	2	0.8	0.9	2	1.6	> 10000	8.1	14.5	2.1	C[C@]1(O)CC[C@@H](Nc2cc(Nc3ccnc(-c4cnn(S(=O)(=O)C5CC5)c4)n3)ncc2-c2cc(C(F)F)ccn2)CC1 [Example 76, (1s,4s)-4-((6′-((2-(1-(Cyclopropylsulfonyl)-1H-pyrazol-4-yl)pyrimidin-4-yl)amino)-4-(difluoromethyl)-[2,3′-bipyridin]-4′-yl)amino)-1-methylcyclohexan-1-ol]
1.7	2.1	1.4	1.1	2.3	2.2	1560	4	13	4.1	O=S(=O)(C1CC1)n1cc(-c2nccc(Nc3cc(N[C@H]4CC[C@@H](CO)CC4)c(-c4cc(C(F)F)ccn4)cn3)n2)cn1 [Example 77, ((1s,4s)-4-((6′-((2-(1-(Cyclopropylsulfonyl)-1H-pyrazol-4-yl)pyrimidin-4-yl)amino)-4-(difluoromethyl)-[2,3′-bipyridin]-4′-yl)amino)cyclohexyl)methanol]
5.5	6.8	5.4	–	15.8	8.8	> 10000	23.6	85.5	16.6	CC(C)(O)[C@H]1CC[C@@H](Nc2cc(Nc3ccnc(-c4cnn(S(=O)(=O)C5CC5)c4)n3)ncc2-c2cc(C(F)F)ccn2)CC1 [Example 78, 2-((1s,4s)-4-((6′-((2-(1-(Cyclopropylsulfonyl)-1H-pyrazol-4-yl)pyrimidin-4-yl)amino)-4-(difluoromethyl)-[2,3′-bipyridin]-4′-yl)amino)cyclohexyl)propan-2-ol]
0.5	0.8	0.5	0.3	0.6	0.4	450	1.4	4.7	0.7	CN(C)C[C@H]1CC[C@@H](Nc2cc(Nc3ccnc(-c4cnn(S(=O)(=O)C5CC5)c4)n3)ncc2-c2cc(C(F)F)ccn2)CC1 [Example 79, N^6′-(2-(1-(Cyclopropylsulfonyl)-1H-pyrazol-4-yl)pyrimidin-4-yl)-4-(difluoromethyl)-N^4′-((1s,4s)-4-((dimethylamino)methyl)cyclohexyl)-[2,3′-bipyridine]-4′,6′-diamine]
6.2	3.8	6.3	2.8	8.4	2.5	4410	11.4	11.1	2.3	C[C@]1(O)CC[C@@H](Nc2cc(Nc3ccnc(-c4cnn(S(=O)(=O)C5CC5)c4)n3)ncc2-c2ccc(N3CCCC3)cn2)CC1 [Example 80, (1s,4s)-4-((6′-((2-(1-(Cyclopropylsulfonyl)-1H-pyrazol-4-yl)pyrimidin-4-yl)amino)-5-(pyrrolidin-1-yl)-[2,3′-bipyridin]-4′-yl)amino)-1-methylcyclohexan-1-ol]
3.1	2.4	6	2	19	4	3650	11.7	13	3.3	O=S(=O)(C1CC1)n1cc(-c2nccc(Nc3cc(N[C@H]4CC[C@@H](CO)CC4)c(-c4ccc(N5CCCC5)cn4)cn3)n2)cn1 [Example 81, ((1s,4s)-4-((6′-((2-(1-(Cyclopropylsulfonyl)-1H-pyrazol-4-yl)pyrimidin-4-yl)amino)-5-(pyrrolidin-1-yl)-[2,3′-bipyridin]-4′-yl)amino)cyclohexyl)methanol]
10.5	6.5	15.4	2.8	13.3	7.9	> 10000	29.6	73.3	7.8	CC(C)(O)[C@H]1CC[C@@H](Nc2cc(Nc3ccnc(-c4cnn(S(=O)(=O)C5CC5)c4)n3)ncc2-c2ccc(N3CCCC3)cn2)CC1 [Example 82, 2-((1s,4s)-4-((6′-((2-(1-(Cyclopropylsulfonyl)-1H-pyrazol-4-yl)pyrimidin-4-yl)amino)-5-(pyrrolidin-1-yl)-[2,3′-bipyridin]-4′-yl)amino)cyclohexyl)propan-2-ol]
0.6	0.7	0.3	0.2	0.2	0.2	24.9	0.2	0.4	0.1	CN1CCN(c2ccc(-c3cnc(Nc4ccnc(-c5cnn(S(=O)(=O)C6CC6)c5)n4)cc3N[C@H]3CC[C@@](C)(O)CC3)nc2)CC1 [Example 83, (1s,4s)-4-((6′-((2-(1-(Cyclopropylsulfonyl)-1H-pyrazol-4-yl)pyrimidin-4-yl)amino)-5-(4-methylpiperazin-1-yl)-[2,3′-bipyridin]-4′-yl)amino)-1-methylcyclohexan-1-ol]
0.7	0.9	0.5	0.3	0.6	0.4	181	0.6	0.5	0.2	CN1CCN(c2ccc(-c3cnc(Nc4ccnc(-c5cnn(S(=O)(=O)C6CC6)c5)n4)cc3N[C@H]3CC[C@@H](C(C)(C)O)CC3)nc2)CC1 [Example 84, 2-((1s,4s)-4-((6′-((2-(1-(Cyclopropylsulfonyl)-1H-pyrazol-4-yl)pyrimidin-4-yl)amino)-5-(4-methylpiperazin-1-yl)-[2,3′-bipyridin]-4′-yl)amino)cyclohexyl)propan-2-ol]
